Entries after “also recorded” stand apart in the source; their conditions may differ. Read-outs that look alike come from different tables or passages of the source. Marks after values point to notes of the source that are not given here. A value given as a limit tells only on which side of the number the result lay.

The target of experiment [1] is T1, KOR (Homo sapiens, UniProt P41145). The experiment can be described thus: KOR cAMP inhibition screening, antagonist mode vs. 100 nM U69,593. Conditions: Antagonist vs. 100 nM U69,593 IC50 (nM).
Experiment [2] has as its target T1, KOR. In words: KOR cAMP inhibition screening, agonist mode.
In experiment [3] the target is T2, kappa-opioid receptors (KOR) (Homo sapiens, UniProt P41145).
T2 construct: NIMH Psychoactive Drug Screening Program (screening service)
The experiment can be described thus: NIMH PDSP radioligand displacement, [3H]U-69593. The experiment is classed as binding. As to conditions: for displacement of [3H]U-69593 from KOR: 10 μM.

Experiment [4] deals with T3, mu-opioid receptors (MOR) (Homo sapiens, UniProt P35372).
T3 construct: NIMH Psychoactive Drug Screening Program (screening service)
The experiment can be described thus: NIMH PDSP radioligand displacement, [3H]DAMGO. It counts as binding. Conditions: 10 μM. On the technique in general: Displacement assays read how much labelled ligand stays bound in the presence of the test substance.

Experiment [5] has as its system >40 common drug targets. In words: NIMH PDSP binding screen of common drug targets. As to conditions: 10 μM.
For experiment [6], the target named is T1, KOR. In words: TANGO assay KOR. The experiment is classed as cell-based.
Experiment [7] addresses MOR (Homo sapiens, UniProt P35372). In words: TANGO assay MOR. The experiment is classed as cell-based.
For experiment [8], the target named is delta-opioid receptors (Homo sapiens, UniProt P41143). The experiment can be described thus: Follow-up assay delta-opioid receptor. The experiment is classed as cell-based.
The target in experiment [9] is nociceptin opioid receptors (Homo sapiens, UniProt P41146). The experiment can be described thus: Follow-up assay nociceptin opioid receptor. It counts as cell-based.
Experiment [10] relates to Mas-related GPCRs. In words: Follow-up assay Mas-related GPCRs. The experiment is classed as cell-based.
For experiment [11], the system named is M1-5. In words: Muscarinic receptor binding (FIG. 3). An excerpt:
Thus, the topology changes that differentiate the two subclasses also differentiate target selectivity.

For experiment [12], the system named is mouse. As to conditions: 5 mg/kg; cited from earlier work.
The subject of experiment [13] is mouse. As to conditions: 5 mg/kg; cited from earlier work. This is another data set of the same source.
Experiment [14] deals with cats. As to conditions: 2.5 mg/kg, i.v. administration; cited from earlier work.
Experiment [15] concerns rabbit intestine. Conditions: 0.1 mg/L, furmethide-induced spasm; cited from earlier work.
The target in experiment [16] is T1, KOR.
The test system of experiment [17] is mammals. Conditions: cited from earlier work.
In experiment [18] the test system is mammals. As to conditions: in vivo; cited from earlier work.
[19] abbreviates: read-out: Agonist Emax (% U69,593).
The mark [20] stands for this setting: read-out: Agonist Emax (% U69,593), KOR cAMP, agonist mode.

T1 sequence (P41145 whole entry): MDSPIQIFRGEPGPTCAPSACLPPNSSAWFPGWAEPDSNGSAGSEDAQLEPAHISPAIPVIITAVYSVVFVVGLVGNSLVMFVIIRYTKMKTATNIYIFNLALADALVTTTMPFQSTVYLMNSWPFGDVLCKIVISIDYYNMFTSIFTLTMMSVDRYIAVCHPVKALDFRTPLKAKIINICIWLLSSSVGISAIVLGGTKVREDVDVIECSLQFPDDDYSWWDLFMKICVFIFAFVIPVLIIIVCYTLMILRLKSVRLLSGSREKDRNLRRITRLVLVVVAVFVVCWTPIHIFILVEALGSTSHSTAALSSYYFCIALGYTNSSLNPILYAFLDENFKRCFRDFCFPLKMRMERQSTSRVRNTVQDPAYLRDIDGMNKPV
T2 sequence (P41145 whole entry): as above
Chain of MOR (P35372 whole entry): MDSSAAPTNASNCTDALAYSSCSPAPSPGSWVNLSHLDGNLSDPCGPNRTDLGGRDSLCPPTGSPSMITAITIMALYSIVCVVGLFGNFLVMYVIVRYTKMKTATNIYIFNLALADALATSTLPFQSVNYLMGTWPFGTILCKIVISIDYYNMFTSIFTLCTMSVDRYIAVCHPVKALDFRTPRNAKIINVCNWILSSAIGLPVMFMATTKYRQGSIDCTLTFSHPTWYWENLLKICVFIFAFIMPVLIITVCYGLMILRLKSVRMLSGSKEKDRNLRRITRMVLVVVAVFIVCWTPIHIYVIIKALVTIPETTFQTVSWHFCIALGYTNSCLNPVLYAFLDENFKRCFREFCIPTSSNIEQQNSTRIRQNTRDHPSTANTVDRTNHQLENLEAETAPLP
Chain of delta-opioid receptors (P41143 whole entry): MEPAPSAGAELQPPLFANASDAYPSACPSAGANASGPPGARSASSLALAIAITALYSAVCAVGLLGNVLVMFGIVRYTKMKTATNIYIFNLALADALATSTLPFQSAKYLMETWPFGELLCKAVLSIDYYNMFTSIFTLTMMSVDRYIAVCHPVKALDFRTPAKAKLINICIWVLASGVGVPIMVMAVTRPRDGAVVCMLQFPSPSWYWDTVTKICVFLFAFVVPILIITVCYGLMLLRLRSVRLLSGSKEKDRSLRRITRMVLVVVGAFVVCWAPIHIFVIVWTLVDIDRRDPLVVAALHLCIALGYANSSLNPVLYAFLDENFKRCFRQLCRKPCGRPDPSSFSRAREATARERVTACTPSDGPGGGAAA
Chain of nociceptin opioid receptors (P41146 whole entry): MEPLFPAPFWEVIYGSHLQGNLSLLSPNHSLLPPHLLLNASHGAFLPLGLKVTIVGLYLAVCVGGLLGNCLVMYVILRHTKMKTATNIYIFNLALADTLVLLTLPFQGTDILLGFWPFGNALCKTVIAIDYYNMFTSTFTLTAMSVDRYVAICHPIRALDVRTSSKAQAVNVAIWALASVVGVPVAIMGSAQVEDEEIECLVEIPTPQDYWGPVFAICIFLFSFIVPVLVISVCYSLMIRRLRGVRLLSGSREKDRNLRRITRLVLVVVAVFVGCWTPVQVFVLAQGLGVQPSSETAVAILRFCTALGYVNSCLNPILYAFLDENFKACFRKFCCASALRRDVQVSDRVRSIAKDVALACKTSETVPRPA
T3 sequence (P35372 whole entry): as the sequence (P35372 whole entry) above

One may read the IC50 as the concentration that gives 50% inhibition. A lower IC50 goes with greater potency in that assay. As for `CC1CCCC(C2CC3C4CCCCC45C=C(I)C4C2(C)OC345)N1C` (stereo not drawn), in experiment [1], it took 830 nM to reach half-maximal inhibition (IC50).

Broadly, the Emax is the size of the effect at its maximum, as opposed to the concentration needed. As for `C#CCOC(=O)C1=CC23CCCCC2C2CC(C4CCCC(C)N4)C4(C)OC23C14` (stereo not drawn), in [2] (setting [19]), the Emax is 5%. This compound also showed a half-maximal inhibitory concentration (IC50) in [1] of 556 nM.

As for `CCOC(=O)C1=CC23CCCCC2C2CC(C4CCCC(C)N4C)C4(C)OC23C14` (stereo not drawn), the Emax in [2] (setting [19]) was found to be 15%. The compound further yielded an IC50 in experiment [1] of 3390 nM.

For `CC1CCCC(C2CC3C4CCCCC45C=C(C#N)C4C2(C)OC345)N1C` (stereo not drawn), the Emax in [2] (setting [20]) is 8%.

As for `CC1CCCC([C@H]2C[C@H]3C4CCCCC45C=C(I)[C@H]4C2(C)OC345)N1C` (stereo partly drawn), the IC50 in experiment [1] was 1400 nM.

As to `C=CCN1C(C)CCCC1C1CC2C3CCCCC34C=C(C(=O)OC)C3C1(C)OC234` (stereo not drawn), in experiment [2] (setting [20]), the Emax turned out to be 2%.

Turning to `COC(=O)C1=CC23CCCCC2C2CC(C4CCCC(C)N4C(C)=O)C4(C)OC23C14` (stereo not drawn), the maximal response (Emax) in experiment [2] (setting [19]) is 10%. The same compound displayed an IC50 in [1] greater than 10000 nM.

As to `CC1CCCC(C2CC3C4CCCCC45C=C(CO)C4C2(C)OC345)N1C` (stereo not drawn), in experiment [2] (setting [19]), the maximal response (Emax) was 12%. Besides, it took 116 nM to reach half-maximal inhibition in experiment [1] (IC50).

As for `COCC1=CC23CCCCC2C2CC(C4CCCC(C)N4C)C4(C)OC23C14` (stereo not drawn), the Emax in experiment [2] (setting [19]) was 14%. In [1], this compound had an IC50 of 3220 nM.

`CC(=O)C1=CC23CCCCC2C2CC(C4CCCC(C)N4C)C4(C)OC23C14` (stereo not drawn): the maximal effect (Emax) in experiment [2] (setting [20]) was 12%.

Regarding `COCC(=O)C1=CC23CCCCC2C2CC(C4CCCC(C)N4C)C4(C)OC23C14` (stereo not drawn), in experiment [2] (setting [20]), the Emax was 10%.

With `CC1CCCC(C2CC3C4CCCCC45C=C(C4=NCCO4)C4C2(C)OC345)N1C` (stereo not drawn), the maximum response (Emax) in [2] (setting [20]) stood at 4%.

Consider `COC1CC23CCCCC2C2CC(c4cccc(C)n4)C4(C)OC23C14` (stereo not drawn), for which the Emax in experiment [2] (setting [20]) is 5%.

As usually defined, the EC50 is the concentration at which the effect is half-maximal. Consider `COC(=O)C1=CC23CCCCC2[C@@H]2C[C@H](c4cccc(C)c4)C4(C)OC23[C@@H]14` (stereo partly drawn), for which, in [2], the “Agonist Emax (% U69,593)” value is recorded as 60* % U69,593 and the midpoint of the response, the EC50, lay at 1050 nM.

On to `COC(=O)C1=CC23CCCCC2[C@@H]2C[C@H](c4cccnc4)C4(C)OC23[C@@H]14` (stereo partly drawn), for which the maximal effect (Emax) in [2] (setting [19]) amounted to 19%. The compound also displayed an IC50 in experiment [1] greater than 10000 nM.

Usually Ki stands for a dissociation constant, usually derived from enzyme kinetics or from competition with a known ligand. Higher therefore signals weaker binding. Consider `COC(=O)C1=CC23CCCCC2[C@H]2C[C@@H](C4CCCC(C)N4)C(C)(O3)[C@@H]12` (single isomer, unassigned) [ent-GB18], for which the “displacement of [3H]U-69593 from KOR” value in [3] is 56%. The compound further gave a Ki in [3] ([3H]U-69593 displacement) of 1100 nM.

For the compound `COC(=O)C1=CC23CCCCC2[C@@H]2C[C@H](C4CCCC(C)N4)C(C)(O3)[C@H]12` (single isomer, unassigned) [nat-GB18], in [3], the “displacement of [3H]U-69593 from KOR” value turned out to be 87%. For the same compound, in experiment [4], the “displacement of [3H]DAMGO from MOR” value was found to be 85%. In addition, the “binding to >40 common drug targets” value in [5] was “low or statistically-insignificant”. The 50% inhibitory concentration (IC50) in experiment [6] (TANGO, antagonist) was 10 nM; in [7] (TANGO, antagonist) it was 12 nM. In addition, in [8], the “ligation of delta-opioid receptors” value is on record as “not strongly ligated”. For the same compound, the “ligation of nociceptin opioid receptors” value in experiment [9] is recorded as “not strongly ligated”. Also, the “ligation of Mas-related GPCRs” value in experiment [10] was “not strongly ligated”.

Take `COC(=O)C1=C[C@@]23CCCC[C@H]2[C@@H]2C[C@H]([C@H]4CCC[C@@H](C)N4)C(C)(O3)[C@H]12` [GB18, methyl (2R,3aS,5aR,9aS,9bS)-3-methyl-2-((2R,6R)-6-methylpiperidin-2-yl)-1,2,3,3a,6,7,8,9,9a,9b-decahydro-3,5a-epoxycyclopenta[a]naphthalene-4-carboxylate]: in experiment [6] (FIG. 3), the “antagonism of KOR” value was “high potency”. Moreover, in [7] (FIG. 3), the “antagonism of MOR” value is “high potency”. The “binding to M1-5” value in [11] was “does not bind”. For the same compound, in experiment [12], the “inhibition of mouse preening” value is “inhibition of preening; also recorded: inhibited mouse preening”. Also, the “effect on pain threshold” value in [13] is “without effect; also recorded: no effect”.

As to `COC(=O)C1=C2C3(O)CC4CC5C3CCC(C)N5C24C2CCCC(OC)C2C1OC(=O)c1ccccc1` (stereo not drawn) [Himandrine], in experiment [14], the heart rate result is given as “reduced heart rate”; the hypotension result is “marked and sustained hypotension”.

As for `C[C@@H]1CC[C@H]2[C@H](C[C@@H]3C[C@@]2(O)C2=CC(=O)[C@H]4CCCC[C@@H]4[C@H]23)N1C` [Himbadine], the antispasmodic activity result in [15] was “significant antispasmodic activity”.

Regarding `COC(=O)C1CC23CCCCC2C2CC(C4CCCC(C)N4)C4(C)OC23C14` (stereo not drawn) [drawing 153], the Emax in [2] (setting [20]) was found to be 13%. The compound further registered a half-inhibitory concentration (IC50) in [1] of 5000 nM.

For `COC(=O)C1CC23CCCCC2C2CC(C4CCCC(C)N4)C4(C)OC23C14` (stereo not drawn) [drawing 154], in experiment [16], the “Agonist Emax (% U69,593)” value was 10* % U69,593. In experiment [1], this compound returned an IC50 greater than 10000 nM.

For `COC1CC23CCCCC2C2CC(C4CCCC(C)N4)C4(C)OC23C14` (stereo not drawn) [drawing 167], the “Agonist Emax (% U69,593)” value in experiment [2] is 10* % U69,593. The same compound yielded a half-maximal inhibitory concentration (IC50) in experiment [1] of 6250 nM.

Take `COC1CC23CCCCC2C2CC(C4CCCC(C)N4)C4(C)OC23C14` (stereo not drawn) [drawing 168]: in experiment [2] (setting [19]), the maximal response (Emax) was 17%.

In the case of `COC(=O)C1=C2C3(O)CC4CC5C3CCC(C)N5C24C2CCC(O)C(OC)C2C1OC(=O)c1ccccc1` (stereo not drawn) [himandridine], the hypotensive activity result in [17] (2.5 mg/kg) is listed as “moderate to marked hypotensive activity”.

With `CC1CCCC(C=CC2C3CCCCC3CC3C(=O)OC(C)C32)N1` (stereo not drawn) [himbeline], the “depressant and hypotensive activity” value in experiment [17] (no dose listed) was “weakly depressant and hypotensive”.

himandravine: in [18], the CNS depression result was “strong CNS depression” and the “anticonvulsant activity against electroshock seizure” value is given as “anticonvulsant activity”.

The record behind these values is US20250346581A1, “PROCESS FOR SYNTHESIS OF GALBULIMIMA ALKALOID 18 AND COMPOUNDS USEFUL AS OPIOID RECEPTOR ANTAGONISTS AND AGONISTS” (The Scripps Research Institute, priority 2022, published 2025).
